# Structures can show the parent of a compound that is named as a salt.
# Target: RIPK1 (recombinant GST-RIPK1 kinase domain, residues 1-327) (Homo sapiens (Human), UniProt Q13546)
# Test: RIPK1-ADP-Glo Enzymatic Assay
# Format: biochemical
# Settings: ADP-Glo; 25 nM GST-RIPK1, 300 μM ATP; assay lower limit ~25 nM; read-out: RIPK1 V0 Ec50
# Summary of the method: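 GST-tagged kinase domain (residues 1-327, Sf21-expressed), 25 nM, pre-incubated 30 min with compound at ambient temperature, then reacted 150 min with 300 μM ATP and 3 μM dephosphorylated MBP in HEPES pH 7.3 buffer. ADP measured by ADP-Glo luminescence; EC50 from ten-point titration (top 100000 nM), four-parameter fit.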
# Sequence of RIPK1 (recombinant GST-RIPK1 kinase domain, residues 1-327) (Q13546 1-327): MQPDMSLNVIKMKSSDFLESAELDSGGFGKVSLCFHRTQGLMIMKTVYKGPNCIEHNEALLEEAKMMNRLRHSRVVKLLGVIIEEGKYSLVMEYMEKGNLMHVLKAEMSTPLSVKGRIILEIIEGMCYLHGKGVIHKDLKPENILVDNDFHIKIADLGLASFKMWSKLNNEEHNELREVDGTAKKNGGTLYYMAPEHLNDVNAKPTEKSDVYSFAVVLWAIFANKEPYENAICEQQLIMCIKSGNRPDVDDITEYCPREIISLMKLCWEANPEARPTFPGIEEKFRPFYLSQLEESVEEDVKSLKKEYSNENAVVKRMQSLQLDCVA
row,SMILES,EC50
1,"CC1CN(C(=O)c2ccccc2)CCC12O[C@@H]1CC[C@@H](c3cc(F)cc(F)c3)N1C2=O (single isomer, unassigned) [Example 2.6, (3[S or R],4[S or R], 5′S,7a′R)-1-benzoyl-5′-(3,5-difluorophenyl)-3-methyltetrahydro-3′H-spiro[piperidine-4,2′-pyrrolo[2,1-b]oxazol]-3′-one]",< 25 nM
2,"O=C(c1cn2ccccc2n1)N1CCC2(CC1)O[C@@H]1CC[C@@H](c3cc(F)cc(F)c3)N1C2=O [Example 5.71, (5′S,7a′R)-5′-(3,5-difluoro-phenyl)-1-(imidazo[1,2-a]-pyridine-2-carbonyl)tetra-hydro-3′H-spiro[piperidine-4,2′-pyrrolo[2,1-b]oxazol]-3′-one]",155 nM
3,"O=C1N2[C@@H](CC[C@H]2C2CCCC2)OC12CCN(c1ccnc3c(F)cnn13)CC2 [Example 4.88, (5′S,7a′R)-5′-cyclopentyl-1-(3-fluoropyrazolo [1,5-a]pyrimidin-7-yl)tetrahydro-3′H-spiro[piperidine-4,2′-pyrrolo[2,1-b]oxazol]-3′-one, TFA salt]",< 25 nM
4,"O=C1N2[C@@H](CC[C@H]2c2cc(F)cc(F)c2)OC12CCN(c1cc(-c3ccccc3)ncn1)CC2 [Example 4.13, (5′S,7a′R)-5′-(3,5-difluorophenyl)-1-(6-phenylpyrimidin-4-yl)tetrahydro-3′H-spiro[piperidine-4,2′-pyrrolo[2,1-b] [1,3]oxazol]-3′-one]",< 25 nM
5,"O=C(c1cc(F)c(F)cc1F)N1CCC2(CC1)O[C@@H]1CC[C@@H](c3cc(F)cc(F)c3)N1C2=O [Example 5.4, (5′S,7a′R)-5′-(3,5-difluoro-phenyl)-1-(2,4,5-trifluoro-benzene-1-carbonyl)tetra-hydro-3′H-spiro[piperi-dine-4,2′-pyrrolo[2,1-b] [1,3]oxazol]-3′-one]",< 25 nM
6,"O=C1N2[C@@H](CC[C@H]2c2cc(F)cc(F)c2)OC12CCN(c1nccc3nccn13)CC2 [Example 4.82, (5′S,7a′R)-5′-(3,5-difluorophenyl)-1-(imidazo[1,2-c]pyrimidin-5-yl)tetrahydro-3′H-spiro[piperidine-4,2′-pyrrolo[2,1-b]oxazol]-3′-one, TFA salt]",25 nM
7,"O=C1N2[C@@H](CC[C@H]2c2ccccc2F)OC12CN(c1ccnc(-c3cnn(C(F)F)c3)c1)C2 [Example 4.138, (5′S,7a′R)-1-{2-[1-(difluoromethyl)-1H-pyrazol-4-yl]pyridin-4-yl}-5′-(2-fluorophenyl)tetrahydro-3′H-spiro[azetidine-3,2′-pyrrolo[2,1-b] [1,3]oxazol]-3′-one]",145 nM
8,"O=C(c1cnon1)N1CCC2(CC1)O[C@@H]1CC[C@@H](c3cc(F)cc(F)c3)N1C2=O [Example 5.46, (5′S,7a′R)-5′-(3,5-difluoro-phenyl)-1-(1,2,5-oxazole-3-carbonyl)tetrahydro-3′H-spiro[piperidine-4,2′-pyrrolo-[2,1-b]oxazol]-3′-one]",444 nM
9,"O=C(c1cc(F)ccc1F)N1CCC2(CC1)SC1CCC(c3ccccc3)N1C2=O (stereo not shown) [Example 1.24, 1-(2,5-difluorobenzene-1-carbonyl)-5′-phenyltetrahydro-3′H-spiro[piperidine-4,2′-pyrrolo[2,1-b] [1,3]thiazol]-3′-one]",23 nM
10,"O=C1N2[C@@H](CC[C@H]2c2cc(F)cc(F)c2)OC12CCN(c1ccnc3ccnn13)CC2 [Example 4.6, (5′S,7a′R)-5′-(3,5-difluorophenyl)-1-(pyrazolo[1,5-a]pyrimidin-7-yl)tetrahydro-3′H-spiro[piperidine-4,2′-pyrrolo[2,1-b] [1,3]oxazol]-3′-one]",< 25 nM
11,"O=C1N2[C@@H](CC[C@H]2c2cccc(F)c2)OC12CCN(c1ccnc3ccnn13)CC2 [Example 4.123, (5′S,7a′R)-5′-(3-fluorophenyl)-1-(pyrazolo[1,5-a]pyrimidin-7-yl)tetrahydro-3′H-spiro[piperidine-4,2′-pyrrolo[2,1-b] [1,3]oxazol]-3′-one]",< 25 nM
12,"CC(=O)c1ccc(N2CCC3(CC2)O[C@@H]2CC[C@@H](c4ccccc4)N2C3=O)n2ncnc12 [Example 4.270, (5′S,7a′R)-1-(8-acetyl[1,2,4]triazolo[1,5-a]pyridin-5-yl)-5′-phenyltetrahydro-3′H-spiro[piperidine-4,2′-pyrrolo[2,1-b] [1,3]oxazol]-3′-one]",< 25 nM
13,"Cc1cc(N2CCC3(CC2)O[C@@H]2CC[C@@H](c4ccccc4)N2C3=O)ncc1[N+](=O)[O-] [Example 4.207, (5′S,7a′R)-1-(4-methyl-5-nitropyridin-2-yl)-5′-phenyltetrahydro-3′H-spiro[piperidine-4,2′-pyrrolo[2,1-b] [1,3]oxazol]-3′-one]",< 25 nM
14,"CC1CN(c2cccc3ncnn23)CCC12O[C@@H]1CC[C@@H](c3ccccc3)N1C2=O (stereo partly drawn) [Example 4.245, (4R,5′S,7a′R)-3-methyl-5′-phenyl-1-([1,2,4]triazolo[1,5-a]pyridin-5-yl)tetrahydro-3′H-spiro[piperidine-4,2′-pyrrolo[2,1-b] [1,3]oxazol]-3′-one]",< 25 nM

# Next, values leading:
row,EC50,SMILES
1,75.1 nM,"Cc1ccc(C)c(C(=O)N2CCC3(CC2)O[C@@H]2CC[C@@H](c4ccccc4)N2C3=O)c1 [Example 6.142, (5′S,7a′R)-1-(2,5-dimethylbenzene-1-carbonyl)-5′-phenyl-tetrahydro-3′H-spiro [piperidine-4,2′-pyrrolo[2,1-b][1,3]oxazol]-3′-one]"
2,171 nM,"CC(C)(C)NC(=O)c1nc(N2CCC3(CC2)O[C@@H]2CC[C@@H](c4cc(F)cc(F)c4)N2C3=O)ncc1F [Example 7.15, N-tert-butyl-2-[(5′S,7a′R)-5′-(3,5-difluorophenyl)-3′-oxotetrahydro-1H,3′H-spiro[piperidine-4,2′-pyrrolo[2,1-b][1,3]oxazol]-1-yl]-5-fluoropyrimidine-4-carboxamide]"
3,56.9 nM,"O=C(c1ccccn1)N1CCC2(CC1)O[C@@H]1CC[C@@H](c3cc(F)cc(F)c3)N1C2=O [Example 6.101, (5′S,7a′R)-5′-(3,5-difluorophenyl)-1-(pyridine-2-carbonyl) tetrahydro-3′H-spiro [piperidine-4,2′-pyrrolo[2,1-b][1,3]-oxazol]-3′-one]"
4,< 25 nM,"N#Cc1ccc(N2CCC3(CC2)O[C@@H]2CC[C@@H](c4cc(F)cc(F)c4)N2C3=O)n2ncnc12 [Example 14.2, 5-((5′S,7a′R)-5′-(3,5-difluorophenyl)-3′-oxotetrahydro-3′H-spiro[piperidine-4,2′-pyrrolo[2,1-b]oxazol]-1-yl)-[1,2,4]triazolo[1,5-a]pyridine-8-carbonitrile, TFA salt]"
5,885 nM,O=C1N2C(=NC13CCN(c1cc(F)ccn1)CC3)CC[C@H]2c1cc(F)cc(F)c1 [Example 11.1]
6,36.9 nM,"O=C(c1cnccn1)N1CCC2(CC1)O[C@@H]1CC[C@@H](c3cc(F)cc(F)c3)N1C2=O [Example 6.85, (5′S,7a′R)-5′-(3,5-difluorophenyl)-1-(pyrazine-2-carbon-yl)tetrahydro-3′H-spiro[piperidine-4,2′-pyrrolo[2,1-b][1,3]-oxazol]-3′-one]"
7,935 nM,"COc1cccnc1C(=O)N1CCC2(CC1)O[C@@H]1CC[C@@H](c3cc(F)cc(F)c3)N1C2=O [Example 6.81, (5′S,7a′R)-5′-(3,5-difluorophenyl)-1-(3-methoxypyridine-2-carbonyl)tetrahydro-3′H-spiro[piperidine-4,2′-pyrrolo[2,1-b] [1,3]oxazol]-3′-one]"
8,95 nM,"Cc1oncc1C(=O)N1CCC2(CC1)O[C@@H]1CC[C@@H](c3cc(F)cc(F)c3)N1C2=O [Example 6.60, (5′S,7a′R)-5′-(3,5-difluorophenyl)-1-(5-methyl-1,2-oxazole-4-carbonyl)tetrahydro-3′H-spiro[piperidine-4,2′-pyrrolo[2,1-b] [1,3]oxazol]-3′-one]"
9,261 nM,"O=C(c1ccccc1OC(F)F)N1CCC2(CC1)O[C@@H]1CC[C@@H](c3cc(F)cc(F)c3)N1C2=O [Example 6.61, (5′S,7a′R)-1-[2-(difluoromethoxy)-benzene-1-carbonyl]-5′-(3,5-difluorophen-yl)tetrahydro-3′H-spiro[piperidine-4,2′-pyrrolo[2,1-b][1,3]-oxazol]-3′-one]"
10,50 nM,"O=C(c1ccoc1C(F)(F)F)N1CCC2(CC1)O[C@@H]1CC[C@@H](c3cc(F)cc(F)c3)N1C2=O [Example 6.67, (5′S,7a′R)-5′-(3,5-difluorophenyl)-1-[2-(trifluoromethyl)-furan-3-carbonyl]-tetrahydro-3′H-spiro [piperidine-4,2′-pyrrolo[2,1-b][1,3]-oxazol]-3′-one]"
11,619 nM,"Cc1nc(C(=O)N2CCC3(CC2)O[C@@H]2CC[C@@H](c4cccc(F)c4)N2C3=O)c(C)o1 [Example 6.126, (5′S,7a′R)-1-(2,5-dimethyl-1,3-oxazole-4-carbonyl)-5′-(3-fluorophenyl)tetra-hydro-3′H-spiro[piperi-dine-4,2′-pyrrolo[2,1-b][1,3]oxazol]-3′-one]"
12,< 25 nM,"O=C(c1nc(N2CCC3(CC2)O[C@@H]2CC[C@@H](c4cc(F)cc(F)c4)N2C3=O)ncc1F)N1CC(F)C1 [Example 7.7, (5′S,7a′R)-5′-(3,5-difluorophenyl)-1-[5-fluoro-4-(3-fluoroazetidine-1-carbonyl)pyrimidin-2-yl]tetrahydro-3′H-spiro[piperidine-4,2′-pyrrolo[2,1-b][1,3]oxazol]-3′-one]"
13,35.4 nM,"O=C(c1ncc(F)cc1F)N1CCC2(CC1)O[C@@H]1CC[C@@H](c3cc(F)cc(F)c3)N1C2=O [Example 6.89, (5′S,7a′R)-5′-(3,5-difluorophenyl)-1-(3,5-difluoropyridine-2-carbonyl)tetrahydro-3′H-spiro[piperidine-4,2′-pyrrolo[2,1-b] [1,3]oxazol]-3′-one]"
14,36.9 nM,"O=C(c1ccccc1Cl)N1CCC2(CC1)O[C@@H]1CC[C@@H](c3cc(F)cc(F)c3)N1C2=O [Example 6.78, (5′S,7a′R)-1-(2-chloro-benzene-1-carbonyl)-5′-(3,5-difluorophen-yl)tetrahydro-3′H-spiro[piperidine-4,2′-pyrrolo[2,1-b][1,3]-oxazol]-3′-one]"

# Source: patent publication US12180226B2, “Spirotricycle RIPK1 inhibitors and methods of uses thereof” (Merck Sharp & Dohme LLC, priority 2021, dated 2024)
